Columns and labels:
wild-type HIV-1 = test: Spread assay: inhibition of acute HIV-1 infection of T-lymphoid cells (wild-type); assay type: cell-based
Protocol: Assays for the inhibition of acute HIV-1 infection of T-lymphoid cells (alternatively referred to herein as the “spread assay”) were conducted in accordance with Vacca, J. P. et al., Proc. Natl. Acad. Sci. USA 1994, 91: 4096. […] The compounds were also tested using a variant of the assay using HIV strains containing the K103N and Y181C mutants, and found to be less than 20-fold shifted relative to wild-type in all cases.

HIV-1 RT enzyme (WT) = HIV-1 RT enzyme (WT) (Human immunodeficiency virus type 1 group M subtype B, UniProt P04585); test: ECL assay for inhibition of HIV reverse transcriptase; assay type: biochemical; details: 100 nM compound; wild-type RT
Protocol: An assay to determine the in vitro inhibition of HIV reverse transcriptase by compounds of the present invention was conducted as follows: HIV-1 RT enzyme (0.1 nM) was combined with inhibitor or DMSO (10%) in assay buffer (50 mM Tris-HCl, pH 7.8, 1 mM dithiothreitol, 6 mM MgCl2, 80 mM KCl, 0.025% CHAPS, 0.1 mM EGTA), and the mixture preincubated for 30 minutes at room temperature in microtiter plates (Corning Costar #3365). 50 μL reaction mixtures were initiated with a combination of primer-template substrate (5 nM final concentration) and dNTPs (0.6 μM dNTPs, 20 nM Ruthenium-dUTP). The heterodimeric nucleic acid substrate was generated by annealing the DNA primer biotinylated-pD500 (obtained from Integrated DNA Technologies) to t500, a 500 nucleotide RNA template created by in vitro transcription (see Shaw-Reid et al., J. Biol. Chem., 278: 2777-2780). After a 90 minute incubation at 37° C., reactions were quenched by 60 μL of quenching buffer containing 0.05 M EDTA, 0.7% BSA, 0.07% Tween-20 and 0.017% sodium azide in PBS. […] The plate is then left at room temperature for 1 hour, after which it is washed 3 times with 200 μL per well of PBS. 150 μL of 1× read buffer T (MSD) is added and the plate read on the Sector Imager 6000 (MSD).

SMILES	Spread (WT) CIC95 (nM) (50% NHS) (wild-type HIV-1)	inhibition at 0.1 µM (HIV-1 RT enzyme (WT)) [%]	Spread (WT) CIC95 (nM) (10% FBS) (wild-type HIV-1)
Cn1c(Cn2ccc(C(F)(F)F)c(Oc3cc(Cl)cc(C#N)c3)c2=O)n[nH]c1=O [Example 1-1, 3-Chloro-5-({1-[(4-methyl-5-oxo-4,5-dihydro-1H-1,2,4-triazol-3-yl)methyl]-2-oxo-4-(trifluoromethyl)-1,2-dihydropyridin-3-yl}oxy)benzonitrile]	19	85	–
CCn1c(Cn2ccc(C(F)(F)F)c(Oc3cc(Cl)cc(C#N)c3)c2=O)n[nH]c1=O [Example 2-1, 3-Chloro-5-({1-[(4-ethyl-5-oxo-4,5-dihydro-1H-1,2,4-triazol-3-yl)methyl]-2-oxo-4-(trifluoromethyl)-1,2-dihydropyridin-3-yl}oxy)benzonitrile]	26	75	–
Cn1c(Cn2ccc(Cl)c(Oc3cc(Cl)cc(C#N)c3)c2=O)n[nH]c1=O [Example 3-1, 3-Chloro-5-({4-chloro-1-[(4-methyl-5-oxo-4,5-dihydro-1H-1,2,4-triazol-3-yl)methyl]-2-oxo-1,2-dihydropyridin-3-yl}oxy)benzonitrile]	15	75	–
Cn1c(Cn2ccc(Br)c(Oc3cc(Cl)cc(C#N)c3)c2=O)n[nH]c1=O [Example 4-1, 3-({4-Bromo-1-[(4-methyl-5-oxo-4,5-dihydro-1H-1,2,4-triazol-3-yl)methyl]-2-oxo-1,2-dihydropyridin-3-yl}oxy)-5-chlorobenzonitrile]	12	90	–
Cn1c(Cn2ccc(C(C)(F)F)c(Oc3cc(Cl)cc(C#N)c3)c2=O)n[nH]c1=O [Example 5-1, 3-Chloro-5-({4-(1,1-difluoroethyl)-1-[(4-methyl-5-oxo-4,5-dihydro-1H-1,2,4-triazol-3-yl)methyl]-2-oxo-1,2-dihydropyridin-3-yl}oxy)benzonitrile]	10	75	–
Cn1c(Cn2cc(Br)c(Cl)c(Oc3cc(Cl)cc(C#N)c3)c2=O)n[nH]c1=O [Example 6-1, 3-({5-Bromo-4-chloro-1-[(4-methyl-5-oxo-4,5-dihydro-lH-l,2,4-triazol-3-yl)methyl]-2-oxo-1,2-dihydropyridin-3-yl}oxy)-5-chlorobenzonitrile]	–	90	5.1
Cn1c(Cn2cc(Br)c(C(F)(F)F)c(Oc3cc(Cl)cc(C#N)c3)c2=O)n[nH]c1=O [Example 7-1, 3-({5-Bromo-1-[(4-methyl-5-oxo-4,5-dihydro-1H-1,2,4-triazol-3-yl)methyl]-2-oxo-4-(trifluoromethyl)-1,2-dihydropyridin-3-yl}oxy)-5-chlorobenzonitrile]	23	77	–
Cn1c(Cn2ccc(C(F)(F)F)c(Oc3cc(C#N)cc(C(F)F)c3)c2=O)n[nH]c1=O [Example 8-1, 3-(Difluoromethyl)-5-({1-[(4-methyl-5-oxo-4,5-dihydro-1H-1,2,4-triazol-3-yl)methyl]-2-oxo-4-(trifluoromethyl)-1,2-dihydropyridin-3-yl}oxy)benzonitrile]	–	75	7.3

— US8486975B2, “Non-nucleoside reverse transcriptase inhibitors” (Merck Canada Inc., priority 2010, dated 2013)
